Data from ChEMBL document CHEMBL4602617, “Discovery and optimization of heteroaryl piperazines as potent and selective PI3Kδ inhibitors” (Bioorg Med Chem Lett, 2020).

Experiments:
[1] = molecular target: Fibroblast growth factor receptor 3 (Homo sapiens, UniProt P22607, K650E); assay: Inhibition of recombinant N-terminal His-tagged human FGFR3 K650E mutant (398 to 806 residues) cytoplasmic domain expressed in baculovirus expression system using Tyr 04 peptide as substrate after 1 hr in presence of ATP by Z'-LYTE assay
[2] = molecular target: Phosphatidylinositol 4-phosphate 3-kinase C2 domain-containing subunit alpha (Homo sapiens, UniProt O00443); assay: Inhibition of recombinant full length human N-terminal GST-tagged PIK3C2alpha catalytic domain expressed in baculovirus expression system using PI lipid as substrate incubated for 60 mins in presence of ATP by Adapta assay
[3] = molecular target: Calcium/calmodulin-dependent protein kinase type 1D (Homo sapiens, UniProt Q8IU85); assay: Inhibition of recombinant full length human His-tagged CAMK1delta expressed in baculovirus expression system using serine/threonine-25 peptide as substrate incubated for 60 mins in presence of ATP by Z'-LYTE assay
[4] = molecular target: Homeodomain-interacting protein kinase 3 (Homo sapiens, UniProt Q9H422); assay: Inhibition of recombinant human His-tagged HIPK3 catalytic domain expressed in baculovirus expression system using serine/threonine-9 peptide as substrate incubated for 60 mins in presence of ATP by Z'-LYTE assay

Measured: IC50

Fibroblast growth factor receptor 3, sequence (P22607 23-806 K650E limits assumed): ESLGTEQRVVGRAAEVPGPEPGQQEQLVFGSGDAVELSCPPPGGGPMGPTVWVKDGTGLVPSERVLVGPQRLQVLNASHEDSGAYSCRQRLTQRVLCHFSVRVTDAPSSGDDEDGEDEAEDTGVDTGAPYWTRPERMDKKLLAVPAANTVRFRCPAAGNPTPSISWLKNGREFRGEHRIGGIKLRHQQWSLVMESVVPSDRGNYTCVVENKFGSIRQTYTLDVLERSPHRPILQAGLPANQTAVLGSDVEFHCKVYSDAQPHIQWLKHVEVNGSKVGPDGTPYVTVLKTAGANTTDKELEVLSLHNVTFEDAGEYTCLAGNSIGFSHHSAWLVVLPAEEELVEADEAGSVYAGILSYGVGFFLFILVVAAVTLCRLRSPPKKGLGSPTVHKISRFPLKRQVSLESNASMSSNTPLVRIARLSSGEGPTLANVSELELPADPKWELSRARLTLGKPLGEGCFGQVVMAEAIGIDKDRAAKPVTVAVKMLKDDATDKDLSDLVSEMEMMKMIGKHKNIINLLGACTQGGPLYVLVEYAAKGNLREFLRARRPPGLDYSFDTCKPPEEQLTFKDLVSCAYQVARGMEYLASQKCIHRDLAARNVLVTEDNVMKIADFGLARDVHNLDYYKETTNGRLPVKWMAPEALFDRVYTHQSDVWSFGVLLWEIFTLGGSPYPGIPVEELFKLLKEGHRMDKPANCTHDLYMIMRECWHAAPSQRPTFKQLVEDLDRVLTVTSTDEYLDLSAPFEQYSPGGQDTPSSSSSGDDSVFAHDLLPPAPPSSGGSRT
Phosphatidylinositol 4-phosphate 3-kinase C2 domain-containing subunit alpha, sequence (O00443 whole entry, looked up, the tested form may be a part): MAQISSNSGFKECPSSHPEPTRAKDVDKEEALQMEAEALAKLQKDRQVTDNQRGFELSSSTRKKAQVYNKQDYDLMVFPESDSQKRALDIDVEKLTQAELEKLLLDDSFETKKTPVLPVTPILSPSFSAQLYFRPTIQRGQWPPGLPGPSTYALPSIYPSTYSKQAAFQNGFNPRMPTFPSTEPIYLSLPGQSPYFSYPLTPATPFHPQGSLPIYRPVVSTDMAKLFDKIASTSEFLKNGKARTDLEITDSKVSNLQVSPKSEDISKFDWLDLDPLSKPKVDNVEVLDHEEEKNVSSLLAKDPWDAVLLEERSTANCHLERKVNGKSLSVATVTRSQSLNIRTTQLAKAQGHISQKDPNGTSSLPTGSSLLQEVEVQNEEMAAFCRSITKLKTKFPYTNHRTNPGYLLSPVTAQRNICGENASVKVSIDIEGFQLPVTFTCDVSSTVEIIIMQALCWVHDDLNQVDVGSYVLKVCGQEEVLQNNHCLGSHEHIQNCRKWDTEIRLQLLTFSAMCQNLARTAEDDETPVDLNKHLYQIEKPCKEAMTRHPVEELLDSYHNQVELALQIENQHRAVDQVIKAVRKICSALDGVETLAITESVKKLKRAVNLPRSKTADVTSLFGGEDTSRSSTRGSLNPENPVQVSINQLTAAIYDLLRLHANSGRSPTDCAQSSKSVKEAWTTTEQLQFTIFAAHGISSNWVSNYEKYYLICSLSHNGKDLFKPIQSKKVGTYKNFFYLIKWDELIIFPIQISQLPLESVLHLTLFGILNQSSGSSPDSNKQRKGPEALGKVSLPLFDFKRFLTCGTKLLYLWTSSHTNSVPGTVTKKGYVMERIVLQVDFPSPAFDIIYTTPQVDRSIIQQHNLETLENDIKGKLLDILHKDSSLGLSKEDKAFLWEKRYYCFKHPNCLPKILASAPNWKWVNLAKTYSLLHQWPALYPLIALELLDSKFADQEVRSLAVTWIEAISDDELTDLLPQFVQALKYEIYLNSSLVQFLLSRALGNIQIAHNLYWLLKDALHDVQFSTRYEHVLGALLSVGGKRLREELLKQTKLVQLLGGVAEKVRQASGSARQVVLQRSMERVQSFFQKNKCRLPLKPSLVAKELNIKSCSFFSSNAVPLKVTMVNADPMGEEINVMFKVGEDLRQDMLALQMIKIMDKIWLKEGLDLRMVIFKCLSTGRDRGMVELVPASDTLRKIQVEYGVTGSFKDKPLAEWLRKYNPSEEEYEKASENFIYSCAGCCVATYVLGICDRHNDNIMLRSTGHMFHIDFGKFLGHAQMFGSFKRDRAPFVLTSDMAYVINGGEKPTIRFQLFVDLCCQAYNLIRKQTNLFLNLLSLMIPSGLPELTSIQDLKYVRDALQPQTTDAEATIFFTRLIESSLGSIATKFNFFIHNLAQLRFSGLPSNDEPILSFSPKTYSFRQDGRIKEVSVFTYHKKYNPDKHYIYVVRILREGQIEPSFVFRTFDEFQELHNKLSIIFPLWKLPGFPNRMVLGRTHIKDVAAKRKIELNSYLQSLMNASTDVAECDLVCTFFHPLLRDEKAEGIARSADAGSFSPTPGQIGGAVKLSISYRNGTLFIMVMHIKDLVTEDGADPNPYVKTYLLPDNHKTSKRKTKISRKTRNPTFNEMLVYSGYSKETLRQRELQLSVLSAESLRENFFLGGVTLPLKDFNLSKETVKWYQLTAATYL
Homeodomain-interacting protein kinase 3, sequence (Q9H422 whole entry, the tested form may be a part): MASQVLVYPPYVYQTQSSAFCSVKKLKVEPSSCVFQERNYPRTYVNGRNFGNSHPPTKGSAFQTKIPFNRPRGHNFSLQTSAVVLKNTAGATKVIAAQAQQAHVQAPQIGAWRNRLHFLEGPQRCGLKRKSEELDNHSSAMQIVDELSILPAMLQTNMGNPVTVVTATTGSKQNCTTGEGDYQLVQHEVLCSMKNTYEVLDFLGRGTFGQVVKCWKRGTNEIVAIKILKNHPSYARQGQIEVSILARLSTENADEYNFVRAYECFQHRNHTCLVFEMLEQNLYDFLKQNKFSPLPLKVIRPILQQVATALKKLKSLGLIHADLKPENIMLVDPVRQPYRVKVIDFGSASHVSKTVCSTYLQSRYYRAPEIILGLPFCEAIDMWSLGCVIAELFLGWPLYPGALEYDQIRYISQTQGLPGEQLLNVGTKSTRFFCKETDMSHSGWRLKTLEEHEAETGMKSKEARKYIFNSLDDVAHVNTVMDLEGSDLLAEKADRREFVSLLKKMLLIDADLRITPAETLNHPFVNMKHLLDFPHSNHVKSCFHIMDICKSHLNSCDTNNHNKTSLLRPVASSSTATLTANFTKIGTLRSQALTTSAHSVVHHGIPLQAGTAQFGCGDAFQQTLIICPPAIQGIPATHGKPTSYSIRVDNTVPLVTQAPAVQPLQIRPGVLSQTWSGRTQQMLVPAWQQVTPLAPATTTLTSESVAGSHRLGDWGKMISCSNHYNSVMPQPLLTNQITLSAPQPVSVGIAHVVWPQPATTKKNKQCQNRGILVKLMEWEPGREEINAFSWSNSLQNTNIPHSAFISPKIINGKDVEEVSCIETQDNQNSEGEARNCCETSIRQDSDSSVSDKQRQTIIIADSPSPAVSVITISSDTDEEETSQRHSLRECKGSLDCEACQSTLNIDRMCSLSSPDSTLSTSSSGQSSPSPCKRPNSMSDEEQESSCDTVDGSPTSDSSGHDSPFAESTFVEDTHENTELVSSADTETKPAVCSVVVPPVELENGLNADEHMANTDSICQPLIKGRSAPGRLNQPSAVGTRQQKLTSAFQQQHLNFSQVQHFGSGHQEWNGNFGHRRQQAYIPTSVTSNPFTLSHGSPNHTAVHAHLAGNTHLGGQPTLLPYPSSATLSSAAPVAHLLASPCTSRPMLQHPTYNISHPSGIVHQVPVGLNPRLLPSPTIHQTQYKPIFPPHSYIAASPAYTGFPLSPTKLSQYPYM
Calcium/calmodulin-dependent protein kinase type 1D, sequence (Q8IU85 whole entry, the tested form may be a part): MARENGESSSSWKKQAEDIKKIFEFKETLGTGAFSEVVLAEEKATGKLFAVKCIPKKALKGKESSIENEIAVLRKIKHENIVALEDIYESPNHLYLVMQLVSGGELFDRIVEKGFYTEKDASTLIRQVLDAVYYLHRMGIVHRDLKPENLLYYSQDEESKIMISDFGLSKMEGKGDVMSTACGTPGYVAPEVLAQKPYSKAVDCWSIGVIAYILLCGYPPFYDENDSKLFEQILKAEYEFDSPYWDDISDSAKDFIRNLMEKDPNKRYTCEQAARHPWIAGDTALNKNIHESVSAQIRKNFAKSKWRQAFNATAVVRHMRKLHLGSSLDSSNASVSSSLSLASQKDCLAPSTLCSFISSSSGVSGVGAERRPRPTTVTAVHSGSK

C[C@@H]1C[C@H]1C(=O)N1CCN(c2cnc(C#N)c(-c3cnn(C)c3)n2)C[C@H]1C
> 100 µM: all assays above
